This note sets out measurements from patent US9238656B2, “Imidazo[4,5-b]pyridine derivatives as ALK and JAK modulators for the treatment of proliferative disorders” (priority 2012, dated 2016).

Where a name gives a salt, the structure may show the parent alone. Where only a bound is given, the exact number is not on record here.

Chain of baculovirus-expressed JAK2 kinase (O60674 whole entry): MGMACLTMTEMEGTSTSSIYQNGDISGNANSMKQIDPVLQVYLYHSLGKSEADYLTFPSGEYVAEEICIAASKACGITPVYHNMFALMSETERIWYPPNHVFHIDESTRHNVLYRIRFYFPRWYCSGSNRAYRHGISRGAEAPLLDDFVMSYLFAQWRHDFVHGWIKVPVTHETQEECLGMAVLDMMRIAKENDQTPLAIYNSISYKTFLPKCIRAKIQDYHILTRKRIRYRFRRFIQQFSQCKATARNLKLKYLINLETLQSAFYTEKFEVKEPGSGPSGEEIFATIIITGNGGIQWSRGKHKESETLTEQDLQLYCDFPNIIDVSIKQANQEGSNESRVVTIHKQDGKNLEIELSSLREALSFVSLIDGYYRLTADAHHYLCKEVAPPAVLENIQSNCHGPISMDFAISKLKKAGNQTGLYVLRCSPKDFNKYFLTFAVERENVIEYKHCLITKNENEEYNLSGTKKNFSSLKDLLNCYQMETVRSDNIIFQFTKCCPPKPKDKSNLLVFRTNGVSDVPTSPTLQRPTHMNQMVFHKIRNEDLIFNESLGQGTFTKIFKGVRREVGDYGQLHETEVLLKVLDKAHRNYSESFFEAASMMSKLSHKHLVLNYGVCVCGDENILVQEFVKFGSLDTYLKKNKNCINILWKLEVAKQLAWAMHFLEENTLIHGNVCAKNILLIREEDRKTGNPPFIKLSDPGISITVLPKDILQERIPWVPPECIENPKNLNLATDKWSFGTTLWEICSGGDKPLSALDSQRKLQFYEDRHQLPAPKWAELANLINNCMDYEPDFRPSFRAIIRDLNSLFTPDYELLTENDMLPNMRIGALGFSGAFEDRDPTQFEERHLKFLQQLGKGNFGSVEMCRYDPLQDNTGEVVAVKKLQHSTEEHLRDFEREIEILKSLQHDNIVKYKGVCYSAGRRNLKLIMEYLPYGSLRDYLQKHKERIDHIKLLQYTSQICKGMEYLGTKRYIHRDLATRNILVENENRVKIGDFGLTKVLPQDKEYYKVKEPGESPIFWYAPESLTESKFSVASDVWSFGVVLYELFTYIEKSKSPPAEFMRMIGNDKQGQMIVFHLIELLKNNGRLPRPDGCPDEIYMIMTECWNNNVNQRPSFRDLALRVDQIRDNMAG

The target in one experiment is baculovirus-expressed ALK (Homo sapiens, UniProt Q9UM73). Description: ALK kinase inhibition, TRF/ELISA. The class given is biochemical. Conditions: read-out: ALK Potency. As for the experimental part: Briefly, each 96-well plate was coated with 100 μL/well of 10 μg/mL substrate (GST-PLC-γ) in Tris-buffered saline (TBS). […] The reaction was initiated by adding enzyme (30 ng/mL ALK) and was allowed to proceed at 37° C. for 15 minutes. Detection of the phosphorylated product was performed by adding 100 μL/well of Eu-N1 labeled PT66 antibody (Perkin Elmer #AD0041). […] Data analysis was performed using ActivityBase (IDBS, Guilford, UK). IC50 values were calculated by plotting percent inhibition versus log10 of the concentration of compound and fitting to the nonlinear regression sigmoidal dose-response (variable slope) equation in XLFit (IDBS, Guilford, UK).
Chain of baculovirus-expressed ALK (Q9UM73 19-1620): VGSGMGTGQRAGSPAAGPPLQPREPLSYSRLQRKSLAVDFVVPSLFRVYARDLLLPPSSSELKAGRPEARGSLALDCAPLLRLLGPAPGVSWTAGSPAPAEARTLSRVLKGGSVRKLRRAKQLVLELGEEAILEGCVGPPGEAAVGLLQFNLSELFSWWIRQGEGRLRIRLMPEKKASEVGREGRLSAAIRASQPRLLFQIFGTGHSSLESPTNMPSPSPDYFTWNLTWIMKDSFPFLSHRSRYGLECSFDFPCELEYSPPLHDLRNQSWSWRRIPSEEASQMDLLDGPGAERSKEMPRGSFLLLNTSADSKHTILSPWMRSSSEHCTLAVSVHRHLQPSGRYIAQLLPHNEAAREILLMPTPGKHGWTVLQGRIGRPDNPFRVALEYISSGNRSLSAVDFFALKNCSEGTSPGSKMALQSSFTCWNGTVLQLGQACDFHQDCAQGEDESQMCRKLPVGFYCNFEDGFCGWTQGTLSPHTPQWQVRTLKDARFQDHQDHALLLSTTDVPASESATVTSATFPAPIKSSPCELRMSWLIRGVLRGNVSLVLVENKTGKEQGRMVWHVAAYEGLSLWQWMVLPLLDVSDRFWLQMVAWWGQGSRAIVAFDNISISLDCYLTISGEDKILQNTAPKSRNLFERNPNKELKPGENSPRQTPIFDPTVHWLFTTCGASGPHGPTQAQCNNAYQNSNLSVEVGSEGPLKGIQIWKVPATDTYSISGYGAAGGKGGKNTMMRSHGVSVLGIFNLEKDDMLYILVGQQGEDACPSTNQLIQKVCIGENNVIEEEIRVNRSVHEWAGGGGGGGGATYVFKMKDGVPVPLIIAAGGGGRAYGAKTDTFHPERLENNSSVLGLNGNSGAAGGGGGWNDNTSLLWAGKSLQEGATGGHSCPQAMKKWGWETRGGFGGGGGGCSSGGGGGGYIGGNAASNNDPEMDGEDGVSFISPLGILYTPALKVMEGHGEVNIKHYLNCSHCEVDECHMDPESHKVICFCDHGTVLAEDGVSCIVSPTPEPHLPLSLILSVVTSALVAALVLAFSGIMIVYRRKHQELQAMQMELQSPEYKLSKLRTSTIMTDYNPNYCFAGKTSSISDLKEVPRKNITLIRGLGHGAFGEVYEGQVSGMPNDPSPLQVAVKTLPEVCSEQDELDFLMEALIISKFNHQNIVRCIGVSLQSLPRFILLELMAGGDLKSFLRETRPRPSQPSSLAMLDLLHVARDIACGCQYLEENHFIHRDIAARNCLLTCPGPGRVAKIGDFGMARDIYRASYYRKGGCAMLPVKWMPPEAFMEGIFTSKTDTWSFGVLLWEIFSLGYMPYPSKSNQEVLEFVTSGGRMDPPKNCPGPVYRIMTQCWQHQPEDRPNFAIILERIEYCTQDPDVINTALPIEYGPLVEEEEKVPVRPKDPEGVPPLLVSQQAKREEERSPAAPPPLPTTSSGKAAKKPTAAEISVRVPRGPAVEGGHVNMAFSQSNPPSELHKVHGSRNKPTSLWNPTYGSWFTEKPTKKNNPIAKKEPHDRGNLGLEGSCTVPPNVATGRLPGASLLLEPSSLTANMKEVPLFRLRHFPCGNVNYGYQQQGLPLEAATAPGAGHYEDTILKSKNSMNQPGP
Background: In an ELISA, binding on a coated surface is turned into a signal by an enzyme label.
Consider `Cc1cc(N2CCOCC2)ccc1-c1nc2c(N[C@H]3[C@@H](C(N)=O)[C@@H]4C=C[C@H]3C4)c(Br)cnc2[nH]1` [Compound CXXX, (1S,2S,3R,4R)-3-[6-Bromo-2-(2-methyl-4-morpholin-4-yl-phenyl)-3H-imidazo[4,5-b]pyridin-7-ylamino]-bicyclo[2.2.1]hept-5-ene-2-carboxylic acid amide], for which the IC50 was under 0.1 µM.
On the same count and under the same terms, the result for `CN1CCN(CCOc2ccc(-c3nc4c(N[C@H]5[C@@H](C(N)=O)[C@@H]6C=C[C@H]5C6)c(Cl)cnc4[nH]3)cc2)CC1` [Compound CCL, (1S,2S,3R,4R)-3-(6-chloro-2-(4-(2-(4-methylpiperazin-1-yl)ethoxy)phenyl)-3H-imidazo[4,5-b]pyridin-7-ylamino)bicyclo[2.2.1]hept-5-ene-2-carboxamide] reads under 0.1 µM; that for `NC(=O)[C@@H]1[C@H](Nc2c(Cl)cnc3[nH]c(-c4ccc(C(=O)N5CCNC(C(=O)O)C5)cc4)nc23)[C@H]2C=C[C@@H]1C2` (stereo partly drawn) [Compound CCXXVI, 4-(4-(7-((1R,2R,3S,4S)-3-carbamoylbicyclo[2.2.1]hept-5-en-2-ylamino)-6-chloro-3H-imidazo[4,5-b]211pyridine-2-yl)benzoyl)piperazine-2-carboxylic acid], under 0.1 µM.

A further experiment has as its target baculovirus-expressed JAK2 kinase (Homo sapiens, UniProt O60674). Nature of the experiment: biochemical. Conditions: 0.2 μM ATP; read-out: JAK2 Potency. As for the experimental part: Compounds were tested for their ability to inhibit the kinase activity of baculovirus-expressed JAK2 kinase using the time-resolved fluorescence (TRF) detection system. […] The plates were coated with 100 μL/well of 10 μg/mL Neutravidin (Pierce #31000, Rockford, Ill.) in TBS at 37° C. for 2 h, followed by 100 μL/well of 1 μg/mL 15-mer peptide substrate (biotinyl-amino-hexanoyl-[…]-amide, Infinity Biotech Research and Resource, Aston, Pa.) at 37° C. for 1 h. […] Enzyme (15 ng/mL JAK2) was added and the reaction was allowed to proceed at room temperature for 20 min. […] Inhibition data were analyzed using ActivityBase (IDBS, Guilford, UK). IC50 values were calculated by plotting percent inhibition versus log10 of the concentration of compound and fitting to the nonlinear regression sigmoidal dose-response (variable slope) equation in XLFit (IDBS, Guilford, UK).
`Cc1cc(N2CCOCC2)ccc1-c1nc2c(N[C@H]3[C@@H](C(N)=O)[C@@H]4C=C[C@H]3C4)c(Br)cnc2[nH]1` [Compound CXXX, (1S,2S,3R,4R)-3-[6-Bromo-2-(2-methyl-4-morpholin-4-yl-phenyl)-3H-imidazo[4,5-b]pyridin-7-ylamino]-bicyclo[2.2.1]hept-5-ene-2-carboxylic acid amide]: the IC50 was under 0.1 µM.
The same measure, in the same setting: in the case of `CN1CCN(CCOc2ccc(-c3nc4c(N[C@H]5[C@@H](C(N)=O)[C@@H]6C=C[C@H]5C6)c(Cl)cnc4[nH]3)cc2)CC1` [Compound CCL, (1S,2S,3R,4R)-3-(6-chloro-2-(4-(2-(4-methylpiperazin-1-yl)ethoxy)phenyl)-3H-imidazo[4,5-b]pyridin-7-ylamino)bicyclo[2.2.1]hept-5-ene-2-carboxamide] it was under 0.1 µM.
The same measure, in the same setting: in the case of `NC(=O)[C@@H]1[C@H](Nc2c(Cl)cnc3[nH]c(-c4ccc(C(=O)N5CCNC(C(=O)O)C5)cc4)nc23)[C@H]2C=C[C@@H]1C2` (stereo partly drawn) [Compound CCXXVI, 4-(4-(7-((1R,2R,3S,4S)-3-carbamoylbicyclo[2.2.1]hept-5-en-2-ylamino)-6-chloro-3H-imidazo[4,5-b]211pyridine-2-yl)benzoyl)piperazine-2-carboxylic acid] it was under 0.1 µM.
The same measure, in the same setting: the result for `NC(=O)[C@@H]1[C@H](Nc2c(Cl)cnc3[nH]c(-c4cccc(N5CCOCC5)c4)nc23)[C@H]2C=C[C@@H]1C2` [Compound VII, (1S,2S,3R,4R)-3-[6-Chloro-2-(3-morpholin-4-yl-phenyl)-3H-imidazo[4,5-b]pyridine-7-ylamino]-bicyclo[2.2.1]hept-5-ene-2-carboxylic acid amide] reads under 0.1 µM.
As for `NC(=O)[C@@H]1[C@H](Nc2c(Cl)cnc3[nH]c(-c4cnn(C5CCNCC5)c4)nc23)[C@H]2C=C[C@@H]1C2` [Compound LVII, (1S,2S,3R,4R)-3-[6-Chloro-2-(1-piperidin-4-yl-1H-pyrazol-4-yl)-3H-imidazo[4,5-b]pyridine-7-ylamino]-bicyclo[2.2.1]hept-5-ene-2-carboxylic acid amide], the IC50 was under 0.1 µM.
On the same count and under the same terms, in the case of `COc1cc(N2CCC(N3CCN(C)CC3)CC2)ccc1-c1nc2c(N[C@H]3[C@@H](C(N)=O)[C@@H]4C=C[C@H]3C4)c(Cl)cnc2[nH]1` [Compound XXIII, (1S,2S,3R,4R)-3-(6-Chloro-2-{2-methoxy-4-[4-(4-methyl-piperazin-1-yl)-piperidin-1-yl]-phenyl}-3H-imidazo[4,5-b]pyridin-7-ylamino)-bicyclo[2.2.1]hept-5-ene-2-carboxylic acid amide] it was under 0.1 µM.
Same read-out and setting: the result for `COc1cc(N2CCN(C)CC2)ccc1-c1nc2c(N[C@@H]3[C@H](C(N)=O)[C@H]4C=C[C@@H]3C4)c(Cl)cnc2[nH]1` [Compound XXVIII, (1R,2R,3S,4S)-3-{6-Chloro-2-[2-methoxy-4-(4-methyl-piperazin-1-yl)-phenyl]-3H-imidazo[4,5-b]pyridin-7-ylamino}-bicyclo[2.2.1]hept-5-ene-2-carboxylic acid amide] reads 0.1 to 1 µM; that for `CN1CCN(c2ccc(-c3nc4c(N[C@@H]5[C@H](C(N)=O)[C@H]6C=C[C@@H]5C6)c(Cl)cnc4[nH]3)cc2)CC1` [Compound XXVI, (1R,2R,3S,4S)-3-{6-Chloro-2-[4-(4-methyl-piperazin-1-yl)-phenyl]-3H-imidazo[4,5-b]pyridine-7-ylamino}-bicyclo[2.2.1]hept-5-ene-2-carboxylic acid amide], under 0.1 µM.
On the same count and under the same terms, the result for `COc1cc(N2CCN(C)CC2)ccc1-c1nc2c(N[C@H]3[C@@H](C(N)=O)[C@@H]4C=C[C@H]3C4)c(Cl)cnc2[nH]1` [Compound XXI, (1S,2S,3R,4R)-3-{6-Chloro-2-[2-methoxy-4-(4-methyl-piperazin-1-yl)-phenyl]-3H-imidazo[4,5-b]pyridin-7-ylamino}-bicyclo[2.2.1]hept-5-ene-2-carboxylic acid amide trifluoroacetic acid salt] reads under 0.1 µM.
With `COc1cccc(-c2nc3c(N[C@H]4[C@@H](C(N)=O)[C@@H]5C=C[C@H]4C5)c(Cl)cnc3[nH]2)c1` [Compound V, (1S,2S,3R,4R)-3-[6-Chloro-2-(3-methoxy-phenyl)-3H-imidazo[4,5-b]pyridin-7-ylamino]-bicyclo[2.2.1]hept-5-ene-2-carboxylic acid amide], the IC50 is under 0.1 µM.
The same measure, in the same setting: in the case of `CN1CCN(c2ccc(-c3nc4c(N[C@H]5[C@@H](C(N)=O)[C@@H]6C=C[C@H]5C6)c(Cl)cnc4[nH]3)cc2)CC1` [Compound X, (1S,2S,3R,4R)-3-{6-Chloro-2-[4-(4-methyl-piperazin-1-yl)-phenyl]-3H-imidazo[4,5-b]pyridine-7-ylamino}-bicyclo[2.2.1]hept-5-ene-2-carboxylic acid amide trifluoroacetic acid salt] it was under 0.1 µM.
The same measure, in the same setting: in the case of `Cn1cc(-c2nc3c(N[C@H]4[C@@H](C(N)=O)[C@@H]5C=C[C@H]4C5)c(Cl)cnc3[nH]2)cn1` [Compound VIII, (1S,2S,3R,4R)-3-[6-Chloro-2-(1-methyl-1H-pyrazol-4-yl)-3H-imidazo[4,5-b]pyridine-7-ylamino]-bicyclo[2.2.1]hept-5-ene-2-carboxylic acid amide] it was under 0.1 µM; in that of `COc1ccc(-c2nc3c(N[C@H]4[C@@H](C(N)=O)[C@@H]5C=C[C@H]4C5)c(Cl)cnc3[nH]2)cc1` [Compound VI, (1S,2S,3R,4R)-3-[6-Chloro-2-(4-methoxy-phenyl)-3H-imidazo[4,5-b]pyridine-7-ylamino]-bicyclo[2.2.1]hept-5-ene-2-carboxylic acid amide], under 0.1 µM; in that of `NC(=O)[C@H]1[C@@H](Nc2c(Cl)cnc3[nH]c(-c4cccc(N5CCOCC5)c4)nc23)[C@@H]2C=C[C@H]1C2` [Compound XXV, (1R,2R,3S,4S)-3-[6-Chloro-2-(3-morpholin-4-yl-phenyl)-3H-imidazo[4,5-b]pyridine-7-ylamino]-bicyclo[2.2.1]hept-5-ene-2-carboxylic acid amide], 0.1 to 1 µM.
The same measure, in the same setting: the result for `NC(=O)[C@@H]1[C@H](Nc2c(Cl)cnc3[nH]c(-c4ccc(N5CCOCC5)cc4)nc23)[C@H]2C=C[C@@H]1C2` [Compound IV, (1S,2S,3R,4R)-3-[6-Chloro-2-(4-morpholin-4-yl-phenyl)-3H-imidazo[4,5-b]pyridine-7-ylamino]-bicyclo[2.2.1]hept-5-ene-2-carboxylic acid amide] reads under 0.1 µM.
As to `COc1ccccc1-c1nc2c(N[C@H]3[C@@H](C(N)=O)[C@@H]4C=C[C@H]3C4)c(Cl)cnc2[nH]1` [Compound IX, (1S,2S,3R,4R)-3-[6-Chloro-2-(2-methoxy-phenyl)-3H-imidazo[4,5-b]pyridine-7-ylamino]-bicyclo[2.2.1]hept-5-ene-2-carboxylic acid amide], the IC50 is under 0.1 µM.

Still in this experiment, the particulars now being: read-out: JAK2 Potency.
“4-{2-[7-((1R,2R,3S,4S)-3-Carbamoyl-bicyclo[2.2.1]hept-5-en-2-ylamino)-6-chloro-3H-imidazo[4,5-b]pyridine-2-yl}-5-methoxy-phenyl]-piperidinej-1-carboxylic acid tert-butyl ester [Compound XXIX]”: the IC50 was in the range of 1 to 10 µM.
